Measured values from US10258692B2, “Oral pharmaceutical formulation of BCS class III molecules” (ETHYPHARM, priority 2012, dated 2019).
In brackets after ≈: the same amount, converted by molar mass. Read-outs that look alike come from different tables or passages of the source. Values belong to the compound of their own block, whether it stands above or below them.

Tests used:
[1] = Physicochemical characteristics of baclofen (internal report)
Procedure: Baclofen (FIG. 1) is a BCS class III molecule.
The transport mechanism of baclofen (Merino, et al., 1989) is active transport by means of transporters but these are saturated at high dose. Not knowing the transporter composition of the Caco-2 cells, it is sought to have a high concentration of baclofen in the formulas so that the transporters that are present are saturated. Therefore only the increase in paracellular transport was evaluated. The saturation concentration of baclofen in water is 3 mg/ml (internal pre-formulation report). However, its solubility is highly dependent on pH as indicated by the amine and carboxylic functions present on the molecule. Therefore the addition of 0.01 M fumaric acid shown to be compatible with baclofen by the internal pre-formulation report, allows the solubility of baclofen to be increased twofold to 6 mg/ml. The pH is then 3.88.

[2] = Baclofen solubility assays (visual method); type: physicochemical; settings: for solubility at 24 h: thermodynamic from solid
Procedure: Beforehand it is important to determine the solubility of the active ingredient in the excipients to be evaluated. For the purpose of cell assays, it is important that the active ingredient should be in molecular form to obtain cross-membrane transport. Solubility was determined via visual method by adding exactly weighed quantities of baclofen to the selected excipients, after being left under agitation for 24 h. First the solubility of baclofen at ambient temperature in Labrasol®, Miglyol® 810 and Captex® 355 was determined. The solubility of baclofen in Gélucire® 50/13 was determined after melting the excipient at a temperature higher than 50° C. and placing thereof in a thermostat-controlled oven at 60° C. At a second step, to increase the solubility of baclofen in an aqueous medium, this solubility was determined in an acidified solution of 0.01 M fumaric acid.
The solubility values indicated in Table 7 below were determined in relation to visual observation of particles in the media.

[3] = Permeability assay on Caco-2 cells (apparent permeability); type: in vitro ADME, human; settings: human
From the text: (§1) The Caco-2 cells are derived from the culture of human cells of cancerous origin capable of differentiating in the presence of a suitable culture medium (Pontier, 1997-1998). Their properties are a function of the number of subcultures to which they are subjected. […] The brush-border is differentiated and developed with very tight junctions of 10 to 50 Å (narrower than those of the small intestine). From a biochemical viewpoint, Caco-2 cells also express the enzymes of the enterocytes. In addition, numerous transporters are present but their expression is lower than the levels found in vivo and the P-gp efflux pump is over-expressed which may underestimate absorption compared with in vivo.
(§2) The Caco-2 cells were placed in culture and differentiated over 21 to 30 days. They were subjected to a number of subcultures of less than 110. The culture medium was DMEM (Dulbecco's Modified Eagle Medium) supplemented with inactivated 10% foetal calf serum, with 1% non-essential amino acids and antibiotics.
(§3) The Caco-2 cells allowed evaluation of the potential of eight formulas given in Tables 5a, 5b, 5c and 5d, for improvement in the apparent permeability of baclofen. The dilutions are those chosen by the subcontractor as a function of baclofen concentration measured by the assay technique and as a function of the […] non-toxic concentration given by preliminary toxicity studies.
(§4) Samples were taken after the placing the test specimen in the apical medium: at T5 minutes and T125 minutes in the donor compartment and at T65 minutes and T125 minutes in the receiver compartment. […]
(§5) The apparent permeability of baclofen and the recovery ratio were calculated as follows: Papp=[ΔQ/(Δt×A)]/C0 where Papp=apparent permeability (cm·s^−1) • ΔQ=difference in amount of baclofen measured between the two samplings • Δt=time interval between the two samplings • A=exposure surface area (cm^2) • C0=initial concentration deposited in the donor compartment.
(§6) Each assay was performed three times. For the validity of the assay, the permeability of a reference compound was also measured as positive control. […]

Caco-2 cells [4] = assay: as above; type: in vitro ADME, human; settings: Caco-2, apical pH 6.8 to basolateral pH 7.4; listed as non-formulated baclofen
From the text: as §1, §2, §3, §4, §5, §6

[5] = Benet, et al., 2011; cited from earlier work
Caco-2 cells [6] = assay: Lucifer Yellow test (paracellular transport, tight junctions); type: cell-based, human
From the text: Lucifer yellow (LY) is a marker of paracellular transport (Buyukorturk, et al., 2010). Its measurement in the receiver compartment during the permeability assay allows observation of the opening of the tight junctions. Measurement can also be performed after the assay to evaluate cell integrity (Nollevaux, et al., 2006). The apparent permeability of Lucifer Yellow under normal conditions is […] (Oroxcell, 2011).
Throughout the assays the crossing of Lucifer Yellow from the apical to the basolateral compartment, a marker of paracellular transport, was also evaluated. 200 μM of Lucifer Yellow was co-incubated with the test compound and its permeability evaluated in the same manner as for the latter. Concentrations were measured by fluorescence in both compartments at the start and at the end of the assay.

logP [1]: -1
pH of a saturated solution [1]: 6.5
pKa1 [1]: pKa1 = 3.87
pKa2 [1]: pKa2 = 9.62
Solubility ([1]; 0.1N HCl, 0.1N NaOH): Soluble: 0.1N HCl, 0.1N NaOH
Solubility ([1]; Ethanol, Methanol): Very slightly soluble: Ethanol, Methanol
Solubility ([1]; water, read-out: Solubility (saturation concentration) in water): 3 mg/mL (≈ 14 mM)
pH of the baclofen solution ([2]; 6 mg/ml baclofen in 0.01 M fumaric acid): 3.88
solubility at 24 h ([2]; 0.01 M fumaric acid aqueous solution, pH 3.88, aqueous buffer, in 0.01M fumaric acid aqueous medium, ambient, read-out: Solubility of baclofen): 6 to 7 mg/mL (≈ 28.1 to 32.8 mM)
solubility at 24 h ([2]; Gélucire 50/13 (molten), oil or lipid, in Gélucire ® 50/13, 60° C., read-out: Solubility of baclofen): 0.5 to 1 mg/mL (≈ 2.34 to 4.68 mM)
solubility in words ([2]; aqueous medium): soluble
solubility at 24 h ([2]; liquid absorption enhancers, oil or lipid, read-out: solubility of the active ingredient in the liquid absorption enhancers): < 1 mg/mL
solubility in words ([2]; oil excipients): practically insoluble
solubility at 24 h ([2]; oil or lipid, in Captex ® 355, ambient, read-out: Solubility of baclofen): < 0.1 mg/mL
solubility at 24 h ([2]; oil or lipid, in Labrasol ®, ambient, read-out: Solubility of baclofen): 0.2 to 0.4 mg/mL (≈ 0.936 to 1.87 mM)
solubility at 24 h ([2]; oil or lipid, in Miglyol ® 810, ambient, read-out: Solubility of baclofen): < 0.1 mg/mL
Papp A→B at 125 min ([3]; Caco-2, Caco-2, apical pH 6.8 to basolateral pH 7.4, read-out: apparent permeability of baclofen): < 3 nm/s
apparent permeability of baclofen (Caco-2 cells [4]): lower than 0.5×10^−6 cm/s
Structure (SMILES): NCC(CC(=O)O)c1ccc(Cl)cc1 (stereo not drawn) [baclofen, Baclofen]
log P [5]: −0.96

Papp A→B at 125 min, 20 μM ([3]; Caco-2, 20 μM metoprolol, positive control): > 60 nm/s
Structure (SMILES): COCCc1ccc(OCC(O)CNC(C)C)cc1 (stereo not drawn) [metoprolol]
opening of the tight junctions, in words (Caco-2 cells [6]): lack of effect
